How the values were obtained:
[1] = system: Escherichia coli; test: Antibacterial activity against Escherichia coli ATCC 11229 assessed as diameter of inhibition zone after 24 hrs by agar well diffusion method; format: functional
[2] = system: B16; test: Induction of melanin synthesis in mouse B16 cells assessed as increase in melanin content at 50 uM after 48 hrs measured by spectrophotometric method relative to control; format: functional
[3] = system: B16; test: Cytotoxicity against mouse B16 cells at 50 uM after 24 hrs by CCK8 assay; format: cell-based; details: b16, 24 h
[4] = system: Staphylococcus aureus; test: Antibacterial activity against Staphylococcus aureus ATCC 6538 assessed as diameter of inhibition zone after 24 hrs by agar well diffusion method; format: functional
[5] = system: Candida albicans; test: Antifungal activity against Candida albicans ATCC 10231 assessed as diameter of inhibition zone after 24 hrs by agar well diffusion method; format: functional
[6] = system: B16; test: Potency index, ratio of compound activity to 8-MOP activity for induction of melanin synthesis in mouse B16 cells; format: functional

For `Cc1cc(=O)oc2cc(OCc3cc(-c4ccc(Cl)c(Cl)c4)no3)ccc12`, the “diameter of the inhibition zone (DIZ)” value [1] was “<=7 mm”, the Activity [2] was 204.12% and the Activity [3] was “Toxic”. For the same compound, the “diameter of the inhibition zone (DIZ)” value [4] was “<=7 mm” and the “diameter of the inhibition zone (DIZ)” value [5] was 10 mm.
For `Cc1cc(=O)oc2cc(OCc3cc(-c4cc(Cl)cc(Cl)c4)no3)ccc12`, the Ratio [6] was 2.6, the “diameter of the inhibition zone (DIZ)” value [1] was “<=7 mm” and the Activity [2] was 389.95%. The Activity [3] was “Toxic”, the “diameter of the inhibition zone (DIZ)” value [4] was “<=7 mm” and the “diameter of the inhibition zone (DIZ)” value [5] was 10 mm.
`COc1ccc(-c2cc(COc3ccc4c(C)cc(=O)oc4c3)on2)cc1` was tested, and the “diameter of the inhibition zone (DIZ)” value [1] was “<=7 mm”, the Activity [2] was 129.45% and the “diameter of the inhibition zone (DIZ)” value [4] was “<=7 mm”. The “diameter of the inhibition zone (DIZ)” value [5] was “<=7 mm”.
In the case of `Cc1cc(=O)oc2cc(OCc3cc(-c4ccc5c(c4)OCCO5)no3)ccc12`, the “diameter of the inhibition zone (DIZ)” value [1] is reported as “<=7 mm”, the Activity [2] is reported as 178.33% and the “diameter of the inhibition zone (DIZ)” value [4] is reported as “<=7 mm”. The “diameter of the inhibition zone (DIZ)” value [5] was “<=7 mm”.
In the case of `Cc1cc(=O)oc2cc(O)ccc12` [HYMECROMONE], the “diameter of the inhibition zone (DIZ)” value [1] is reported as “<=7 mm”, the Activity [2] is reported as 112.2% and the “diameter of the inhibition zone (DIZ)” value [4] is reported as “<=7 mm”. For the same compound, the “diameter of the inhibition zone (DIZ)” value [5] was 7 mm.
For `COc1c2occc2cc2ccc(=O)oc12` [METHOXSALEN], the “diameter of the inhibition zone (DIZ)” value [1] was “<=7 mm”, the Activity [2] was 149.39% and the “diameter of the inhibition zone (DIZ)” value [4] was “<=7 mm”. The “diameter of the inhibition zone (DIZ)” value [5] was “<=7 mm”.
For `CC1(C)S[C@@H]2[C@H](NC(=O)[C@H](N)c3ccccc3)C(=O)N2[C@H]1C(=O)O` [AMPICILLIN], the “diameter of the inhibition zone (DIZ)” value [4] was 19 mm and the “diameter of the inhibition zone (DIZ)” value [5] was “<=7 mm”.
`Cc1cc(=O)oc2cc(OCc3cc(-c4ccc(F)c(F)c4)no3)ccc12` was tested, and the “diameter of the inhibition zone (DIZ)” value [1] was “<=7 mm”, the Activity [2] was 156.64% and the “diameter of the inhibition zone (DIZ)” value [4] was “<=7 mm”. The “diameter of the inhibition zone (DIZ)” value [5] was 10 mm.
In the case of `Cc1cc(=O)oc2cc(OCc3cc(-c4cc(I)ccc4F)no3)ccc12`, the “diameter of the inhibition zone (DIZ)” value [1] is reported as “<=7 mm”, the Activity [2] is reported as 169.71% and the “diameter of the inhibition zone (DIZ)” value [4] is reported as “<=7 mm”. The “diameter of the inhibition zone (DIZ)” value [5] was “<=7 mm”.
For `Cc1cc(=O)oc2cc(OCc3cc(-c4cccc(F)c4)no3)ccc12`, the “diameter of the inhibition zone (DIZ)” value [1] was “<=7 mm”, the Activity [2] was 121.15% and the “diameter of the inhibition zone (DIZ)” value [4] was “<=7 mm”. For the same compound, the “diameter of the inhibition zone (DIZ)” value [5] was 7 mm.
For `Cc1cc(=O)oc2cc(OCc3cc(-c4cc(F)cc(F)c4)no3)ccc12`, the “diameter of the inhibition zone (DIZ)” value [1] was “<=7 mm”, the Activity [2] was 176.55% and the “diameter of the inhibition zone (DIZ)” value [4] was “<=7 mm”. For the same compound, the “diameter of the inhibition zone (DIZ)” value [5] was 10 mm.
In the case of `C[C@@H]1[C@H](O)[C@@H](C)/C=C/C=C/C=C/C=C/C=C/C=C/C=C/[C@H](O[C@@H]2O[C@H](C)[C@@H](O)[C@H](N)[C@@H]2O)C[C@@H]2O[C@](O)(C[C@@H](O)C[C@@H](O)[C@H](O)CC[C@@H](O)C[C@@H](O)CC(=O)O[C@H]1C)C[C@H](O)[C@H]2C(=O)O` [AMPHOTERICIN B], the “diameter of the inhibition zone (DIZ)” value [1] is reported as “<=7 mm”, the “diameter of the inhibition zone (DIZ)” value [4] is reported as “<=7 mm” and the “diameter of the inhibition zone (DIZ)” value [5] is reported as 11 mm.
`Cc1cc(=O)oc2cc(OCc3cc(-c4ccc(F)cc4)no3)ccc12` was tested, and the “diameter of the inhibition zone (DIZ)” value [1] was “<=7 mm”, the Activity [2] was 115.44% and the “diameter of the inhibition zone (DIZ)” value [4] was “<=7 mm”. For the same compound, the “diameter of the inhibition zone (DIZ)” value [5] was “<=7 mm”.
For `Cc1cc(=O)oc2cc(OCc3cc(-c4cccc(OC(F)(F)F)c4)no3)ccc12`, the “diameter of the inhibition zone (DIZ)” value [1] was “<=7 mm”, the Activity [2] was 203.27% and the Activity [3] was “Toxic”. For the same compound, the “diameter of the inhibition zone (DIZ)” value [4] was “<=7 mm” and the “diameter of the inhibition zone (DIZ)” value [5] was “<=7 mm”.
In the case of `Cc1cc(=O)oc2cc(OCc3cc(-c4ccc(Cl)cc4)no3)ccc12`, the “diameter of the inhibition zone (DIZ)” value [1] is reported as “<=7 mm”, the Activity [2] is reported as 191.96% and the “diameter of the inhibition zone (DIZ)” value [4] is reported as “<=7 mm”. For the same compound, the “diameter of the inhibition zone (DIZ)” value [5] was “<=7 mm”.
With `Cc1cc(=O)oc2cc(OCc3cc(-c4ccc(Cl)c(F)c4)no3)ccc12` the “diameter of the inhibition zone (DIZ)” value [1] was “<=7 mm”, the Activity [2] was 182.27% and the “diameter of the inhibition zone (DIZ)” value [4] was “<=7 mm”. The “diameter of the inhibition zone (DIZ)” value [5] was 7 mm.
In the case of `Cc1cc(=O)oc2cc(OCc3cc(-c4cccc(Cl)c4)no3)ccc12`, the Ratio [6] is reported as 1.6, the “diameter of the inhibition zone (DIZ)” value [1] is reported as “<=7 mm” and the Activity [2] is reported as 242.18%. The Activity [3] was “Toxic”, the “diameter of the inhibition zone (DIZ)” value [4] was “<=7 mm” and the “diameter of the inhibition zone (DIZ)” value [5] was 7 mm.
For `Cc1cc(=O)oc2cc(OCc3cc(-c4ccccc4)no3)ccc12`, the “diameter of the inhibition zone (DIZ)” value [1] was “<=7 mm”, the Activity [2] was 153.35% and the “diameter of the inhibition zone (DIZ)” value [4] was “<=7 mm”. For the same compound, the “diameter of the inhibition zone (DIZ)” value [5] was “<=7 mm”.
For `COc1ccccc1-c1cc(COc2ccc3c(C)cc(=O)oc3c2)on1`, the “diameter of the inhibition zone (DIZ)” value [1] was “<=7 mm”, the Activity [2] was 145.05% and the “diameter of the inhibition zone (DIZ)” value [4] was “<=7 mm”. For the same compound, the “diameter of the inhibition zone (DIZ)” value [5] was “<=7 mm”.

Source: ChEMBL document CHEMBL4020751, “Synthesis and in vitro biological evaluation of novel coumarin derivatives containing isoxazole moieties on melanin synthesis in B16 cells and inhibition on bacteria” (Bioorg Med Chem Lett, 2017)
